According to article PMC6582940 (Molecular pharmaceutics, 2018):
Where a name gives a salt, the structure may show the parent alone.

Molecular target: ABCB1 (Homo sapiens, UniProt P08183)
Assay: competition of […]IAAP photoaffinity labeling in ABCB1 membranes
Type: binding

Chain of ABCB1 (P08183 whole entry): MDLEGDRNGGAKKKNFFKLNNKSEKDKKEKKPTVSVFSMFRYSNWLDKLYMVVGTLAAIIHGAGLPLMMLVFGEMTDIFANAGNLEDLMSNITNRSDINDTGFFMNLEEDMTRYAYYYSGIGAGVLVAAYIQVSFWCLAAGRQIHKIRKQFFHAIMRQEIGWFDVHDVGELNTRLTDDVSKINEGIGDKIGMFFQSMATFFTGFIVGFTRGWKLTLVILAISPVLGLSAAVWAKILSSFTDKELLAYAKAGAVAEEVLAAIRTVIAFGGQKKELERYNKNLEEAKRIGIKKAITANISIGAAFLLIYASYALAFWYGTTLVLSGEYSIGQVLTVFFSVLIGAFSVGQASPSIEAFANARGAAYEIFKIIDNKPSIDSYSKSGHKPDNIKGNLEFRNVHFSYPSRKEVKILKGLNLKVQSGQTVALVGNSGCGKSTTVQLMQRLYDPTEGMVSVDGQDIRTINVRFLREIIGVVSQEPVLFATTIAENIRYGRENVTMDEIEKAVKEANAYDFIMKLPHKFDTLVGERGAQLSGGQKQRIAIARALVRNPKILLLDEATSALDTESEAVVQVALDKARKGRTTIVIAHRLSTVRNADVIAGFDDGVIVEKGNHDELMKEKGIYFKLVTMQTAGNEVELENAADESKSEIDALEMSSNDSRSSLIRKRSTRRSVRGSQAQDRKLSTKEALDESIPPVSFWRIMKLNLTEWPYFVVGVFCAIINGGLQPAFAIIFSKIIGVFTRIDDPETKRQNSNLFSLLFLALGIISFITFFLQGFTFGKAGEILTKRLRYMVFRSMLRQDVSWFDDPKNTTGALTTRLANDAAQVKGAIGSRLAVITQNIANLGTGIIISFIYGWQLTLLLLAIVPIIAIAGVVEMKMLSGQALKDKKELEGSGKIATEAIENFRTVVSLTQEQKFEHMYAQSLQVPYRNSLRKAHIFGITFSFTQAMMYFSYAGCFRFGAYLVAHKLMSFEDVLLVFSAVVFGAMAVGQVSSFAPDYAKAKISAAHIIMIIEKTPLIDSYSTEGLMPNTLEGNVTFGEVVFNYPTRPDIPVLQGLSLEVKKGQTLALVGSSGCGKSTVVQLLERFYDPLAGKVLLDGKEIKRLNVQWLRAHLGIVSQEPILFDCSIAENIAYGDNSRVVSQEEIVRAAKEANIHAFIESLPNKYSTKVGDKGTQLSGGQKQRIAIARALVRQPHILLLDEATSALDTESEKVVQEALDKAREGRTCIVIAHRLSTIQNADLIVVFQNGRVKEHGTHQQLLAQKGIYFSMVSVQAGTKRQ

COc1ccc(CCC2c3cc(OCc4ccccc4)c(OC)cc3CCN2C)cc1OCc1ccccc1 (racemic) [isoquinoline 2, (±)-7-benzyloxy-1-(3-benzyloxy-4-methoxyphenethyl)-1,2,3,4-tetrahydro-6-methoxy-2-methylisoquinoline oxalate]
IC50: 63 ± 12 nM
